The text below walks through data of patent US4880835A, “Oral liquid pharmaceutical compositions of sulindac” (Formulations Development Labs, Inc., priority 1988, dated 1989).

The conditions of series [1]: background statement; cited from earlier work.
Series [2] is described as follows: pH measurement of oral solutions diluted with water 1:10 and of sodium sulindac solution. The format is physicochemical. The text has this:
The results are shown below.

Series [3] in a line: Stability, hygroscopicity and crystallization of salts and compositions. It counts as physicochemical.

Turning to `CC1=C(CC(=O)O)c2cc(F)ccc2/C1=C\c1ccc([S+](C)[O-])cc1` (stereo not drawn) [Sulindac], the “absorption from the gastrointestinal tract” value in series [1] is reported as “erratically absorbed”.
On to `CC1=C(CC(=O)O)c2cc(F)ccc2/C1=C\c1ccc([S+](C)[O-])cc1` (stereo not drawn) [calcium sulindac], for which the “pH of solutions, in words” value in series [2] (compared with sodium sulindac solutions) is given as “acceptable for formulation”. Moreover, in series [3], the stability result is “good stability”.
As for `CC1=C(CC(=O)O)c2cc(F)ccc2/C1=C\c1ccc([S+](C)[O-])cc1` (stereo not drawn) [sodium sulindac], the “pH of aqueous solution” value in series [2] (aqueous solution, 4%) was 10.99. The hygroscopicity entry in series [3] was “strongly hygroscopic”. For the same compound, the crystallization result in series [3] (in our hands) was “difficult to crystallize”.
